# Data from publication PMC8880268, “Magnolol and Luteolin Inhibition of α-Glucosidase Activity: Kinetics and Type of Interaction Detected by In Vitro and In Silico Studies” (Pharmaceuticals, 2022).
# pIC50: −log10 of the molar value.
# Legend:
# [1] = test system: α-glucosidase; conditions: cited from earlier work; for type of inhibition (inhibition kinetic assays): ref 19; for pIC50: studied with 0.5 µM of α-glucosidase ref 19
# [2] = target: T1, α-glucosidase (Saccharomyces cerevisiae, UniProt P38158); test: Inactivation kinetics, time course of α-glucosidase activity; type: biochemical; conditions: enzyme 0.075 µM, pNPG 2 mM
# T1 construct: purchased Merck KGaA, Darmstadt, Germany
# T1 sequence (P38158 whole entry): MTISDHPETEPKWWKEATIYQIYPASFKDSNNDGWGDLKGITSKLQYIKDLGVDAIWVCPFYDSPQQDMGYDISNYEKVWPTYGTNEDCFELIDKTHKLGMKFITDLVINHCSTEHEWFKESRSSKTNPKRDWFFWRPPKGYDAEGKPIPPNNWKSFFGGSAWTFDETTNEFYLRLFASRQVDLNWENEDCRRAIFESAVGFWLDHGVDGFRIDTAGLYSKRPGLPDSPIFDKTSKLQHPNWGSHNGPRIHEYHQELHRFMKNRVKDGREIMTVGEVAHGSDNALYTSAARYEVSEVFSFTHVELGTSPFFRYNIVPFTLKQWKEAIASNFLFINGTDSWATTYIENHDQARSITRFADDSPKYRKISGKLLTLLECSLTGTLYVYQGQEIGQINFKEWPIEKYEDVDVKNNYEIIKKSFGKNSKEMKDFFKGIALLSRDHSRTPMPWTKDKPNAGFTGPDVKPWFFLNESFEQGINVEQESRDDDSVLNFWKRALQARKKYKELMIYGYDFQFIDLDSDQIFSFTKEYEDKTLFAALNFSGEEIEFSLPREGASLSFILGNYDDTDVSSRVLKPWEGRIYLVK
# Protocol: The enzyme and substrate concentrations were 0.075 µM and 2 mM, respectively.
# [3] = target: T1, α-glucosidase; test: Kinetic analysis of yeast α-glucosidase inhibition (Michaelis–Menten and Lineweaver–Burk plots); type: biochemical; conditions: for Kcat of α-glucosidase: 0.075 µM α-glucosidase
# Protocol: The type of enzyme inhibition exerted by inhibitors was evaluated from kinetic studies using different substrate concentrations (0.25–2.5 mM pNPG) applying Michaelis–Menten and Lineweaver–Burk plots. Inhibition constants (Ki) were determined by plots of the Y-intercept of the Lineweaver–Burk plot vs. inhibitor concentration.
# [4] = target: T1, α-glucosidase; test: Yeast α-glucosidase inhibitory assay (pNPG substrate, absorbance 405 nm); type: biochemical; conditions: plots v vs. [α-glucosidase] at different inhibitor concentrations
# Protocol: α-Glucosidase inhibitory activity was determined according to a previous method. Briefly, 0.1 mM PBS (pH 6.8) was used to dissolve α-glucosidase and pNPG. In detail, 80 μL of PBS or 80 μL of test sample were added to 96-well plates. Successively, 20 μL of enzyme (0.025–0.125 µM) were added to each well. Magnolol (10–100 μM) and luteolin (5–50 μM) were prepared in DMSO (<1% v/v). […] Each sample was incubated with α-glucosidase for 10 min at 37 °C. The reaction started by adding 200 μL of pNPG (2 mM). The absorbance values were detected at 405 nm for 60 min, using a PerkinElmer Victor Nivo microplate spectrophotometer (Waltham, MA, USA). The α-glucosidase activity in the absence of inhibitors was defined as 100%. The half-maximal inhibitory concentration (IC50) was estimated by plot of relative enzymatic activity vs. inhibitor concentration.
# [5] = target: T1, α-glucosidase; test: Fluorescence quenching analysis and thermodynamic parameters; type: binding; conditions: for Ksv (Stern–Volmer quenching constant): pH 6.8, α-glucosidase 0.35 µM
# Protocol: The interaction of inhibitors with α-glucosidase was studied using the fluorescence quenching method. […] Measurements were made in the emission range of 300–450 nm, with an excitation of 280 nm, after 10 min of stabilization. The fluorescent spectra of α-glucosidase (0.35 µM) and each inhibitor (0–1.0 µM) were carried out at three different temperatures (298, 304, and 310 K) and the bandwidths were set at 5 nm for both emission and excitation slits. For each sample, three fluorescence spectra were acquired, and the blank was subtracted. The compound quenching mechanism was assessed using the Stern–Volmer equation: F0 / F = 1 + Ksv[Q] = 1 + Kq^.τo[Q], where F0 and F are the fluorescence measure in absence and in presence of different concentrations of quencher, respectively; Ksv is the Stern–Volmer quenching constant; Kq is the coefficient of quencher rate coefficient; τ0 is the life time of the excited state; and [Q] is the concentration of the quencher.
# Further elaboration of the equilibrium within the free and bound molecules can be achieved through the analysis of the fluorescence emission data utilizing the following equation: log (F0 − F) / F = log Ka + n log [Q], which obtains the binding constant (Ka) and the number of binding sites per protein (n) for the enzyme-inhibitor system.
# Thermodynamic spontaneity is an important factor in the study of protein-ligand interaction. A system tends not only toward a lower energy state (enthalpy, ΔH), but also according to a state of disorder (entropy, ΔS). Thermodynamic parameters were obtained according to the Van ’t Hoff equation and the plot of “log Ka vs. 1/T”. The trade-off between enthalpy (ΔH°) and entropy (ΔS°) is used to obtain the standard free energy variation (ΔG°).
# [6] = 298–310 K, Van ’t Hoff equation
smiles,measurement,setting,value
O=C(OC[C@@H]1O[C@@H](Oc2c(-c3ccc(O)c(O)c3)oc3cc(O)cc(O)c3c2=O)[C@@H](O)[C@H](O)[C@H]1O)c1cc(O)c(O)c(O)c1 [compound 5],type of inhibition (inhibition kinetic assays),[1],competitive inhibitor
same,pIC50,[1],4.56
"C[C@H]1O[C@H](O[C@H]2[C@H](O)[C@@H](O)[C@@H](O[C@H]3[C@H](O)[C@@H](O)C(O)O[C@@H]3CO)O[C@@H]2CO)[C@H](O)[C@@H](O)[C@@H]1N[C@H]1C=C(CO)[C@@H](O)[C@H](O)[C@H]1O (stereo partly shown) [Acarbose, reference compound]",Inactivation rate constant K,[2]; inhibitor 200 µM,2.76 ± 0.07 10^−4 s^−1
same,Inactivation rate constant K,[2]; inhibitor 400 µM,2.81 ± 0.07 10^−4 s^−1
same,Inactivation rate constant K,[2]; inhibitor 800 µM,2.83 ± 0.05 10^−4 s^−1
same,Inactivation rate constant K,[2]; inhibitor 1600 µM,2.84 ± 0.03 10^−4 s^−1
same,Inactivation rate constant K,[2]; inhibitor 3200 µM,2.85 ± 0.01 10^−4 s^−1
same,Inactivation rate constant K,[2]; inhibitor 4000 µM,2.85 ± 0.09 10^−4 s^−1
same,type of inhibition,[3]; Michaelis–Menten and Lineweaver–Burk plots,competitive inhibitor
same,Kcat of α-glucosidase,[3]; inhibitor 200 µM,2.83 ± 0.33 s⁻¹
same,Vmax of α-glucosidase,"[3]; inhibitor 200 µM, converted using the Lambert–Beer relationship",12.7 ± 1.50 µM/min
same,Kcat of α-glucosidase,[3]; inhibitor 400 µM,2.87 ± 0.39 s⁻¹
same,Vmax of α-glucosidase,"[3]; inhibitor 400 µM, converted using the Lambert–Beer relationship",12.9 ± 1.70 µM/min
same,Kcat of α-glucosidase,[3]; inhibitor 800 µM,2.77 ± 0.44 s⁻¹
same,Vmax of α-glucosidase,"[3]; inhibitor 800 µM, converted using the Lambert–Beer relationship",12.4 ± 2.00 µM/min
same,Vmax of α-glucosidase,[3]; inhibitor 1600 µM,0.120 ± 0.016 ΔΟD/min
same,Kcat of α-glucosidase,[3]; inhibitor 1600 µM,2.66 ± 0.36 s⁻¹
same,Vmax of α-glucosidase,"[3]; inhibitor 1600 µM, converted using the Lambert–Beer relationship",12.0 ± 1.60 µM/min
same,Kcat of α-glucosidase,[3]; inhibitor 3200 µM,2.79 ± 0.67 s⁻¹
same,Vmax of α-glucosidase,"[3]; inhibitor 3200 µM, converted using the Lambert–Beer relationship",12.5 ± 3.00 µM/min
same,Kcat of α-glucosidase,[3]; inhibitor 4000 µM,3.12 ± 1.04 s⁻¹
same,Vmax of α-glucosidase,"[3]; inhibitor 4000 µM, converted using the Lambert–Beer relationship",14.1 ± 4.70 µM/min
same,reversibility of inhibition,[4],reversible inhibition
same,Kq (bimolecular quenching constant),[5]; 298 K,3.75 ± 0.041 10^13 M^−1 s^−1
same,n (number of binding sites),[5]; 298 K,1.77
same,ΔG° (free energy change),"[5]; 298 K, Van ’t Hoff equation",2.60 kJ/mol
same,Ksv (Stern–Volmer quenching constant),[5]; 298 K,3.75 ± 0.04 10^5 M^−1
same,ΔH° (enthalpy change),[5]; [6],-45.51 kJ/mol
same,∆S° (entropy change),[5]; [6],−161.47 J mol^−1K^−1
same,Kq (bimolecular quenching constant),[5]; 304 K,1.89 ± 0.014 10^13 M^−1 s^−1
same,n (number of binding sites),[5]; 304 K,1.38
same,ΔG° (free energy change),"[5]; 304 K, Van ’t Hoff equation",3.57 kJ/mol
same,Ksv (Stern–Volmer quenching constant),[5]; 304 K,1.89 ± 0.01 10^5 M^−1
same,Kq (bimolecular quenching constant),[5]; 310 K,1.80 ± 0.020 10^13 M^−1 s^−1
same,n (number of binding sites),[5]; 310 K,1.36
same,ΔG° (free energy change),"[5]; 310 K, Van ’t Hoff equation",4.54 kJ/mol
same,Ksv (Stern–Volmer quenching constant),[5]; 310 K,1.80 ± 0.02 10^5 M^−1
same,number of binding sites,[5]; no temperature stated,approximately 1
O=C(OC[C@@H]1O[C@@H](Oc2c(-c3ccc(O)c(O)c3)oc3cc(O)cc(O)c3c2=O)[C@@H](O)[C@H](O)[C@@H]1O)c1cc(O)c(O)c(O)c1 [compound 4],type of inhibition (inhibition kinetic assays),[1],non-competitive inhibitor
same,pIC50,[1],5.87
